For one experiment, the target named is T1, D(4) dopamine receptor (Rattus norvegicus, UniProt P30729).
T1 sequence (P30729 whole entry): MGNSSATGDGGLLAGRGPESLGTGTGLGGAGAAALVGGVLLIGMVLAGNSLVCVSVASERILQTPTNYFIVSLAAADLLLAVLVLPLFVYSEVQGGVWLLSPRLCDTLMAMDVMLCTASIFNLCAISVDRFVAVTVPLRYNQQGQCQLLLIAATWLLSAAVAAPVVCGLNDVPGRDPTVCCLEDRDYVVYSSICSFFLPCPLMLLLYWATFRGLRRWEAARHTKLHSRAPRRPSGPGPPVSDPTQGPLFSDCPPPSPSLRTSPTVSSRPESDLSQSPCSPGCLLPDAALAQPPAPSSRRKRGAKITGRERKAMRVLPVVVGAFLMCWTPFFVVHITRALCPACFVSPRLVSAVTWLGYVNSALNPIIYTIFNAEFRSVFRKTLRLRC
As to the kind of experiment: In vitro binding affinity to rat Dopamine receptor D4 measured by displacement of the radioligand [3H]spiperone.

In experiment [1] the target is 5-hydroxytryptamine receptor 2A (Homo sapiens, UniProt P28223). Briefly: Binding affinity to cloned human 5-hydroxytryptamine 2A receptor.
Experiment [2] has as its target 5-hydroxytryptamine receptor 7 (Homo sapiens, UniProt P34969). Briefly: In vitro binding affinity to human 5-hydroxytryptamine 7 receptor.
Experiment [3] addresses 5-hydroxytryptamine receptor 6 (Homo sapiens, UniProt P50406). Briefly: In vitro binding affinity to human 5-hydroxytryptamine 6 receptor.
A short description of experiment [4]: Binding affinity to cloned Nicotinic acetylcholine receptors. Details: species or system Rattus norvegicus.

We go through two compounds from ChEMBL document CHEMBL1134077, “Synthesis of potent and selective dopamine D(4) antagonists as candidate radioligands” (Bioorg Med Chem Lett, 2001).

Chain of 5-hydroxytryptamine receptor 6 (P50406 whole entry): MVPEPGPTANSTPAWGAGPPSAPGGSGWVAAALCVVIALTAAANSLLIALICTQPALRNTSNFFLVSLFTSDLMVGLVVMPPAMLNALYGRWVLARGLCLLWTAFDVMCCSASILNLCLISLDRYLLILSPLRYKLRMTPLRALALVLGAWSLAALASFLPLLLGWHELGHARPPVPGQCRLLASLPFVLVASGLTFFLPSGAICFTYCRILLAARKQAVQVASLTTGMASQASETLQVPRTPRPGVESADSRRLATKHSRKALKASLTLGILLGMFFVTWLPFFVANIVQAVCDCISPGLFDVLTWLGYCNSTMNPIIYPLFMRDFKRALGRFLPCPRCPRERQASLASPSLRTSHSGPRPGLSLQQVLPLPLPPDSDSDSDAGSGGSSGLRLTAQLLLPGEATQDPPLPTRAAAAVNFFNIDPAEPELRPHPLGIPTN
Chain of 5-hydroxytryptamine receptor 2A (P28223 whole entry): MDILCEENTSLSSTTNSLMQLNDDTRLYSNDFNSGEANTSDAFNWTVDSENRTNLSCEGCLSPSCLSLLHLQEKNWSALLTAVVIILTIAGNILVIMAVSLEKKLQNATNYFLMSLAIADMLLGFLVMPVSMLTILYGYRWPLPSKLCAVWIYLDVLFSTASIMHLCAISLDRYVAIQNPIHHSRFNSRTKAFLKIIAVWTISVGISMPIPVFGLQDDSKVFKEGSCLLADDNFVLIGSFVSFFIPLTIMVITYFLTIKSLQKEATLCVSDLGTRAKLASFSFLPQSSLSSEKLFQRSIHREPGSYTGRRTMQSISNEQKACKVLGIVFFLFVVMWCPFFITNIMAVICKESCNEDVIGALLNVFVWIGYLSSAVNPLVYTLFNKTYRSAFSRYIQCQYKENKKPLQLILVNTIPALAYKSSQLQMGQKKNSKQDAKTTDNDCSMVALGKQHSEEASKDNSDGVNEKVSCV
Chain of 5-hydroxytryptamine receptor 7 (P34969 whole entry): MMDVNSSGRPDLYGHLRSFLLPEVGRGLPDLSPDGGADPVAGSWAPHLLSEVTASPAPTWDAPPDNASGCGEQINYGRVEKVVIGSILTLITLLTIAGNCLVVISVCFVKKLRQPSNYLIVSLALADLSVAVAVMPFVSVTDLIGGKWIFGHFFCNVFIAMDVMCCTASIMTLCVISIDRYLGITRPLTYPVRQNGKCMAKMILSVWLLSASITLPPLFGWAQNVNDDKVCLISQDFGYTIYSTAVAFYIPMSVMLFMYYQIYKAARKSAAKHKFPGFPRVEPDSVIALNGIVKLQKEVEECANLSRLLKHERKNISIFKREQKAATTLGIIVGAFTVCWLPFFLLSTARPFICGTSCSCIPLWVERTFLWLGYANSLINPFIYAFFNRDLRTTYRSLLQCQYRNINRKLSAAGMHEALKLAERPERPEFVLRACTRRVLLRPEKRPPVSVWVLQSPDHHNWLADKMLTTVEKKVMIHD

A word on the Ki: it is a dissociation constant, usually derived from enzyme kinetics or from competition with a known ligand. A high value points to a looser hold on the target. In the case of `FC(F)(F)c1ccc(N2CCN(Cc3c[nH]c4ncccc34)CC2)cc1`, the Ki at D(4) dopamine receptor was 34.1 nM; in experiment [1], 2790 nM; in experiment [2], 318 nM; in experiment [3] it was 7110 nM.
`Clc1ccc(N2CCN(Cc3c[nH]c4ncccc34)CC2)cc1` [L-745870] registered a Ki in experiment [4] above 10000 nM.
